According to US10246498B2, “Genetically encoded histone reporter allele constructs” (THE JOHNS HOPKINS UNIVERSITY, priority 2014, dated 2019):
“Also recorded” adds a separate entry of the source.

How the values were obtained:
[1] = system: Kmt2d+/βGeo mouse model of Kabuki syndrome; assay: Morris water maze; assay type: in vivo; settings: 10 mg/kg/day
Description: Kmt2d^+/βGeo mice, also named Mll2Gt^(RRt024)Byg, were acquired from Bay Genomics (University of California). All experimental mice were on a mixed C57BL/6J and 129/SvEv background. Expected Mendelian ratios were observed when heterozygous animals were bred to wild-type. In heterozygous crosses, however, there was uniform embryonic lethality of homozygotes by ED12, the earliest developmental stage assayed. For treatment with AR-42, mice were orally gavaged daily with drug (Selleck Chemicals, Houston, Tex.) solubilized in vehicle (0.5% methylcellulose, 0.1% Tween-80, water) or with vehicle alone. Drug delivery information was kindly provided by Drs. […] For quantification of DCX positive cells, doses of 0, 5, 10 and 25 mg/kg/day were used. […] Maxillary protrusion was evaluated by ten investigators blinded to genotype and they were asked to rate maxillary protrusion on radiographs as either large (2) or small (1). […]
Mice were placed in a 1.1 meter diameter tank filled with room temperature water dyed with non-toxic white paint. […] Latency to reach the platform was measured during each trial. […] Average number of crossings of the platform's previous location was recorded. […] For all training and probe testing, data was recorded both manually and electronically with ANY-maze software (San Diego Instruments, San Diego, Calif.) when applicable. […]

[2] = system: DCX positive cells in the GCL; assay: Doublecortin (DCX) expression in the GCL (neurogenesis) after oral AR-42; assay type: in vivo, mouse
Description: Kmt2d^+/βGeo mice, also named Mll2Gt^(RRt024)Byg, were acquired from Bay Genomics (University of California). All experimental mice were on a mixed C57BL/6J and 129/SvEv background. Expected Mendelian ratios were observed when heterozygous animals were bred to wild-type. In heterozygous crosses, however, there was uniform embryonic lethality of homozygotes by ED12, the earliest developmental stage assayed. For treatment with AR-42, mice were orally gavaged daily with drug (Selleck Chemicals, Houston, Tex.) solubilized in vehicle (0.5% methylcellulose, 0.1% Tween-80, water) or with vehicle alone. Drug delivery information was kindly provided by Drs. Chen and Kulp from Ohio State University (Huang et al. (2011) Mol. Pharmacol. 79:197-20619). Drug was administered for 14 days and mice were sacrificed on day 15. Morris water maze testing was initiated at day 7 and a dose of 10 mg/kg/day was used for these studies. For quantification of DCX positive cells, doses of 0, 5, 10 and 25 mg/kg/day were used. Genotyping was performed using primers B-GeoF-([…]; SEQ ID NO: 1) and B-GeoR-([…]; SEQ ID NO: 2) that are specific for the targeted allele and TcrdF-([…]; SEQ ID NO: 3) and TcrdR-([…]; SEQ ID NO: 4) that control for sufficient DNA concentration. Real-time PCR using the same primers allows discrimination between the heterozygous and homozygous state for the targeted allele. Maxillary protrusion was evaluated by ten investigators blinded to genotype and they were asked to rate maxillary protrusion on radiographs as either large (2) or small (1). […] All experiments were performed using mouse protocols approved by the Animal Care and Committee of Johns Hopkins University School of Medicine. The mouse protocols used for this study are in accordance with the guidelines used by the NIH for mouse care and handling.
Every 6th brain section was selected and then blocked with 5% Bovine Serum Albumin (BSA) at room temperature followed by incubation with primary antibodies overnight at 4° C. Secondary antibodies were then applied for 1 hour at room temperature, after which sections were mounted onto microscope slides with Vectamount with DAPI (Vector Laboratories, Burlingame, Calif.). Primary antibodies included Doublecortin (DCX) (SC-8066, Santa Cruz Biotechnology, Dallas, Tex., 1:200 goat), trimethylated H3K4 (9727L, Cell Signaling Technology, Beverly, Mass., 1:500 rabbit), and Kmt2d H-300 (SC-292359, Santa Cruz Biotechnology, Dallas, Tex., 1:500 rabbit). Non-specific binding was not observed when sections were sequentially exposed to serum (or IgG when appropriate) from the same species as the primary antibody for each experiment (i.e. rabbit for KMT2D and H3K4me3 and goat for doublecortin), followed by the secondary antibody used for KMT2D and H3K4me3 (anti-rabbit) or doublecortin (anti-goat, FIG. 29).
The area of both the GCL and DCX+ cells was measured using the NS elements 2.0 software (Nikon, Tokyo, JPN). Normalized DCX area was calculated by measuring the DCX+ area of the GCL and setting the baseline (Kmt2d^+/+) fraction to 1. A Student t-test with significance value set at P<0.05 was used for comparison of DCX+ area referenced to GCL area between genotypes and treatment arms.

## CC(C)[C@H](C(=O)Nc1ccc(C(=O)NO)cc1)c1ccccc1 [AR-42]
[1]
  frequency of platform crossing, probe trial: improved performance; also recorded: normalized
[1]; Kmt2d+/βGeo animals
  escape latency during training, with versus without drug: No significant difference
[2]; 10 mg/kg/day, older (5-6 months) Kmt2d+/βGeo mice
  DCX expression: improved
[2]; 25 mg/kg/day, Kmt2d+/+ animals
  DCX expression: reduced DCX expression
[2]; 25 mg/kg/day, Kmt2d+/βGeo mice
  DCX expression: did not improve DCX expression
[2]; 25 mg/kg/day, young (1-2 month) and old (5-6 month) mice, both genotypes
  DCX expression in the GCL: decreased DCX expression
[2]; 5 and 10 mg/kg/day, 1-2 month old Kmt2d+/βGeo mice
  neurogenesis (normalized DCX expression): dose-dependent increase in neurogenesis
[2]; 5 and 10 mg/kg/day, Kmt2d+/+ or Kmt2d+/βGeo, both age groups
  DCX expression: preservation or restoration of DCX expression
